Results from patent US8778923B2, “GLP-1 receptor modulators” (Receptos, Inc., priority 2011, dated 2014).

Target: T1, GLP-1R (Homo sapiens, UniProt P43220)
T1 construct: host or cells: CRE-bla CHO-K1
Assay: EC20 GLP-1(9-36) PAM cAMP assay: dose response of compound in the presence of fixed concentration of GLP-1(9-36)
Type: cell-based
Details: GLP-1R CRE-bla CHO-K1 cells, compound dose response in presence of fixed concentration of GLP-1(9-36)
Outline: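 Positive allosteric modulation read as cAMP rise: 12-point compound titration combined with a fixed EC20 level of GLP-1(9-36) on GLP-1R CHO-K1 cells, IBMX present, 30 min at 37 °C. Luminescent HitHunter signal converted to cAMP; nonlinear fit gave EC50 and Emax.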

T1 sequence (P43220 24-463): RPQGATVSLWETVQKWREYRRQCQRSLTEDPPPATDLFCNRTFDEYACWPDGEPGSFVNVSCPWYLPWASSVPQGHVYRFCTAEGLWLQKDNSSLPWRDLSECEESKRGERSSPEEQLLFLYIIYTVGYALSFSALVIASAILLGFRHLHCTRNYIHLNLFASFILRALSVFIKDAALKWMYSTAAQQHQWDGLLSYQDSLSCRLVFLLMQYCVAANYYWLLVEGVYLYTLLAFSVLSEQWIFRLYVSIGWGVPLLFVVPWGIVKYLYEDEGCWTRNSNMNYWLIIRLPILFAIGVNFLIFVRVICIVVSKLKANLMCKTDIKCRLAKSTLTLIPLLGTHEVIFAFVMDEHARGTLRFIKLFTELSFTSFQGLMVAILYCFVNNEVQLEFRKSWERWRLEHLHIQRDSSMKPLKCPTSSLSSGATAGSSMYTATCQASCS
T1 sequence (P01275 100-127 partner limits assumed): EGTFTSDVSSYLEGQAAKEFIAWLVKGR

Row | SMILES | EC50
1 | CCCCCCCOc1ccc(-c2nc(-c3ccc(C[C@H](NC(=O)c4ccc(C(C)(C)C)cc4)C(=O)O)cc3)co2)cc1 [Compound 78] | 800 to 2500 nM
2 | CC(C)(C)c1ccc(C(=O)N[C@@H](Cc2ccc(-c3ncc(-c4ccc(COc5ccccc5)cc4)cn3)cc2)C(=O)O)cc1 [Compound 231] | 5000 to 10000 nM
3 | CCCCCCCOc1ccc(-c2cnc(-c3ccc(C[C@H](NC(=O)c4ccc(OC(C)C)cc4)C(=O)O)cc3)nc2)cc1 [Compound 97] | 800 to 2500 nM
4 | CC(C)(C)c1ccc(-c2cnc(-c3ccc(C[C@H](NC(=O)c4ccc(C(C)(C)C)s4)C(=O)N[C@@H](CO)C(=O)O)cc3)nc2)cc1 [Compound 352] | < 800 nM
5 | CNc1cccc(-c2cnc(-c3ccc(C[C@H](NC(=O)c4ccc(C(C)(C)C)cc4)C(=O)O)cc3)nc2)c1 [Compound 234] | 5000 to 10000 nM
